From patent US20140288182A1, “USE OF CARBAMIDE PEROXIDE INJECTION IN PREPARATION OF VIRUS INACTIVATION MEDICAMENTS FOR TREATING DISEASES” (Wuxi Zhaozhen Radiation Technology Co., Ltd., priority 2013, published 2014)

Tested on: thoracic aorta blood vessel plaque
Assay: New-Zealand rabbit model of blood vessel plaque (CTA angiography and MR)
Assay type: in vivo
Procedure: The New-Zealand rabbit model of blood vessel plaque is a common animal experimental model. […] The blood vessel plaque was taken as the target region and positioned, and a radiotherapy plan was made. 1.5 h after intraperitoneal injection of 5-ALA (80 mg/kg body weight), the substrate was intravenously dripped, and the irradiation to the blood vessel plaque was performed once with 5 Gy. The New-Zealand rabbit was continually fed for 1 week.

NCC(=O)CCC(=O)O [5-ALA]
regression of thoracic aorta blood vessel plaque (CTA angiography and MR detection) (5-ALA 80 mg/kg intraperitoneal 1.5 h before, substrate intravenously dripped, plaque irradiated once with 5 Gy, examined on the seventh day after treatment): completely disappeared
plaque in the blood vessel of a rabbit by CT examination (FIG. 3) (photosensitizer given orally, irradiated with high energy X-ray, CT examination 5 days later): eliminated
